# Measurements from US20060264406A1, “Mono-lysine salts of azole compounds” (Eisai Co., Ltd., priority 2005, published 2006).
# Where a name gives a salt, the structure may show the parent alone.
# What was measured:
# Assay type in all cases: physicochemical
# [1] = moisture uptake (weight change versus relative humidity); conditions: 60% RH
# Excerpt: Weight change (y-axis) versus relative humidity (x-axis) is shown, wherein adsorption is shown by -∘-, and desorption by -∘-.
# For instance, Comparative Example 1 has about 10% change in weight at 60% RH (FIG. 1), whereas Example 1 has about 2-2.5% change in weight at the same humidity level (FIG. 2). On average, the mono-lysine salt or solvate thereof has better stability over the bis-lysine form (FIG. 4).
# [2] = physical stability under stressed storage conditions (area percent); conditions: for degradation on storage: 2-week stability data
# [3] = aqueous solubility of the salts and solvates; conditions: water
# Experimental: The obtained solvate of the mono-lysine salt of ((2R,3R)-3-(4-(4-cyanophenyl)thiazol-2-yl)-2-(2,4-difluorophenyl)-1-(1H-1,2,4-triazol-1-yl)butan-2-yloxy)methyl dihydrogen phosphate is scaled up and fully characterized. Physical-chemical properties including solubility, stability, moisture uptake, compaction, etc., are evaluated and compared to the bis-lysine salt of Comparative Example 1.
# Also, Example 1 retains a high aqueous solubility (>200 mg/mL) similar to that of the bis-lysine salt of Comparative Example 1.
smiles,measurement,setting,value
"C[C@@H](c1nc(-c2ccc(C#N)cc2)cs1)[C@@](Cn1cncn1)(OCOP(=O)(O)O)c1ccc(F)cc1F.NCCCC[C@H](N)C(=O)O.NCCCC[C@H](N)C(=O)O [Comparative Example 1, Bis-lysine salt of (2R,3R)-3-[4-(4-cyanophenyl)thiazol-2-yl]-2-(2,4-difluorophenyl)-1-(1H-1,2,4-triazol-1-yl)-2-[(dihydrogenphosphonoxy)methoxy]butane, reference compound]",change in weight (moisture uptake),[1],about 10%
same,change in weight (moisture uptake),[1]; listed as bis-lysine monoethanolate,10%
"C[C@@H](c1nc(-c2ccc(C#N)cc2)cs1)[C@@](Cn1cncn1)(OCOP(=O)(O)O)c1ccc(F)cc1F [Example 1, ((2R,3R)-3-(4-(4-cyanophenyl)thiazol-2-yl)-2-(2,4-difluorophenyl)-1-(1H-1,2,4-triazol-1-yl)butan-2-yloxy)methyl dihydrogen phosphate mono-lysine salt ethanol solvate]",degradation on storage,[2]; 40° C./75% RH (open and closed),minimal degradation
same,degradation on storage,[2]; any other storage conditions,No degradation
same,Area Percent (AP as phosphonoxoxymethyl ether derivative of ravuconazole),"[2]; 5° C., 1 Week",98.47 Area Percent
same,Area Percent (AP as phosphonoxoxymethyl ether derivative of ravuconazole),"[2]; 5° C., 2 Weeks",99.60 Area Percent
same,Area Percent (AP as phosphonoxoxymethyl ether derivative of ravuconazole),"[2]; 5° C., 5 Days",99.59 Area Percent
same,Area Percent (AP as phosphonoxoxymethyl ether derivative of ravuconazole),"[2]; 25° C./60% RH (Closed), 1 Week",99.66 Area Percent
same,Area Percent (AP as phosphonoxoxymethyl ether derivative of ravuconazole),"[2]; 25° C./60% RH (Closed), 2 Weeks",99.21 Area Percent
same,Area Percent (AP as phosphonoxoxymethyl ether derivative of ravuconazole),"[2]; 25° C./60% RH (Closed), 5 Days",99.59 Area Percent
same,Area Percent (AP as phosphonoxoxymethyl ether derivative of ravuconazole),"[2]; 25° C./60% RH (Open), 1 Week",99.65 Area Percent
same,Area Percent (AP as phosphonoxoxymethyl ether derivative of ravuconazole),"[2]; 25° C./60% RH (Open), 2 Weeks",99.42 Area Percent
same,Area Percent (AP as phosphonoxoxymethyl ether derivative of ravuconazole),"[2]; 25° C./60% RH (Open), 5 Days",99.61 Area Percent
same,Area Percent (AP as phosphonoxoxymethyl ether derivative of ravuconazole),"[2]; 40° C./75% RH (Closed), 1 Week",99.05 Area Percent
same,Area Percent (AP as phosphonoxoxymethyl ether derivative of ravuconazole),"[2]; 40° C./75% RH (Closed), 2 Weeks",97.90 Area Percent
same,Area Percent (AP as phosphonoxoxymethyl ether derivative of ravuconazole),"[2]; 40° C./75% RH (Closed), 5 Days",99.20 Area Percent
same,Area Percent (AP as phosphonoxoxymethyl ether derivative of ravuconazole),"[2]; 40° C./75% RH (Open), 1 Week",98.76 Area Percent
same,Area Percent (AP as phosphonoxoxymethyl ether derivative of ravuconazole),"[2]; 40° C./75% RH (Open), 2 Weeks",96.90 Area Percent
same,Area Percent (AP as phosphonoxoxymethyl ether derivative of ravuconazole),"[2]; 40° C./75% RH (Open), 5 Days",98.97 Area Percent
same,Area Percent (AP as phosphonoxoxymethyl ether derivative of ravuconazole),"[2]; 60° C., 1 Week",99.70 Area Percent
same,Area Percent (AP as phosphonoxoxymethyl ether derivative of ravuconazole),"[2]; 60° C., 2 Weeks",99.73 Area Percent
same,Area Percent (AP as phosphonoxoxymethyl ether derivative of ravuconazole),"[2]; 60° C., 5 Days",99.70 Area Percent
same,Area Percent (AP as phosphonoxoxymethyl ether derivative of ravuconazole),"[2]; HIL/UV (Controlled), 1 Week",99.64 Area Percent
same,Area Percent (AP as phosphonoxoxymethyl ether derivative of ravuconazole),"[2]; HIL/UV (Controlled), 2 Weeks",99.68 Area Percent
same,Area Percent (AP as phosphonoxoxymethyl ether derivative of ravuconazole),"[2]; HIL/UV (Controlled), 5 Days",99.60 Area Percent
same,Area Percent (AP as phosphonoxoxymethyl ether derivative of ravuconazole),"[2]; HIL/UV (Exposed), 1 Week",98.68 Area Percent
same,Area Percent (AP as phosphonoxoxymethyl ether derivative of ravuconazole),"[2]; HIL/UV (Exposed), 2 Weeks",99.68 Area Percent
same,Area Percent (AP as phosphonoxoxymethyl ether derivative of ravuconazole),"[2]; HIL/UV (Exposed), 5 Days",99.61 Area Percent
same,Area Percent (AP as phosphonoxoxymethyl ether derivative of ravuconazole),[2]; Initial,99.56 Area Percent
same,Solubility,[3],>200 mg/mL
same,solubility,[3],> 200 mg/mL
same,change in weight (moisture uptake),[1],2-2.5%
same,weight change for adsorption,[1],< 2.5%
same,weight change for desorption,[1],< 5%
same,change in weight (moisture uptake),[1]; listed as mono-lysine monoethanolate,2-3%
"CC(C)O.C[C@@H](c1nc(-c2ccc(C#N)cc2)cs1)[C@@](Cn1cncn1)(OCOP(=O)(O)O)c1ccc(F)cc1F.NCCCC[C@H](N)C(=O)O [Example 5, ((2R,3R)-3-(4-(4-cyanophenyl)thiazol-2-yl)-2-(2,4-difluorophenyl)-1-(1H-1,2,4-triazol-1-yl)butan-2-yloxy)methyl dihydrogen phosphate mono-lysine salt isopropyl alcohol solvate]",weight change for adsorption,[1],< 0.5%
